SMILES strings stand for the structures. Where two headings read alike, the source gives them in different places.

One test relates to platelet aggregation. In words: Platelet aggregation-inhibiting action (Born's turbidimetric method, platelet-rich plasma). The format is cell-based, rabbit. The following applies: Oryctolagus cuniculus, 0.05 h. As to the method:
Nine volumes of blood was drawn from the carotid artery of a rabbit using a syringe containing one volume of 3.8% solution of sodium citrate. The blood was centrifuged to obtain platelet-rich plasma (PRP: 7×10^5 platelets/μl).
In a cuvette was placed 268 μl of the PRP, which was warmed in an isothermic bath at 37° C. for 2 minutes. To the cuvette was added 2 μl of an ethanol solution of a pyrazine derivative to be tested, followed by an incubation for 3 minutes. To the incubate was added a solution of a platelet-aggregation inducer, arachidonic acid or collagen. Measurement was made by Born's turbidimetric method (for example, see J. Physiol., vol. 168, p. 178, 1968). 50% inhibitory concentration for the platelet aggregation caused by arachidonic acid (50 μmol.) or collagen (10 μg/ml) was given in Table 1 using acetylsalicylic acid as the reference.
The 50% inhibitory concentration as shown in table means the concentration of a solution of the pyrazine derivative required for inhibiting the platelet aggregation to 50% when the platelet aggregation in the absence of a pyrazine derivative is taken as 100%.

In the next test the target is T1, cycloxygenase (Oryctolagus cuniculus, UniProt O97554).
T1 construct: The washed platelets thus obtained were employed as a cycloxygenase source; from tissue; host or cells: washed rabbit blood platelets
T1 sequence (O97554 31-606): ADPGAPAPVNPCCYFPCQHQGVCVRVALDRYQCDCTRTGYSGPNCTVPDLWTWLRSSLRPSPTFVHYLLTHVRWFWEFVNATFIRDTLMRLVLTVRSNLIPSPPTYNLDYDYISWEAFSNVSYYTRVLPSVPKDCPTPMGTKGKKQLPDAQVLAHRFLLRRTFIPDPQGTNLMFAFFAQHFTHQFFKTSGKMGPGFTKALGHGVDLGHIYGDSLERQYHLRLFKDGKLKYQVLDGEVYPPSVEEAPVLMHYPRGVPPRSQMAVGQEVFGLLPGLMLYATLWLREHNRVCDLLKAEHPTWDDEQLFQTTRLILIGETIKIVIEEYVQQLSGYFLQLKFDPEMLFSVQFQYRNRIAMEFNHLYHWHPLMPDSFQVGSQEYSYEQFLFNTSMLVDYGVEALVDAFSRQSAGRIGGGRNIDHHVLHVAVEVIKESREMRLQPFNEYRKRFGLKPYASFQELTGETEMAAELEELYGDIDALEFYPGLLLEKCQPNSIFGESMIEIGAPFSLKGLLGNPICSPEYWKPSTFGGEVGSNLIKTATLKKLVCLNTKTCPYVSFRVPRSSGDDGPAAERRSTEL
Kind of test: Cycloxygenase inhibiting activity (washed platelets as cycloxygenase source). The format is biochemical. Particulars: washed rabbit platelets, 14C-labelled arachidonic acid, 37° C., 3 minutes; read-out: 50% Inhibitory concentration (cycloxygenase). As to the method: Nine volumes of blood was drawn from the abdominal artery of a rabbit using a syringe containing one volume of 3.8% solution of sodium citrate. Centrifugation of the blood afforded platelet-rich plasma. To the platelet-rich plasma was added 77 mM EDTA solution in a volume of 1/10 per volume of the plasma. The mixture was thoroughly mixed and centrifuged at 2500 rpm for 10 minutes. The supernatant was discarded, and the platelets were suspended in approximately 3 ml of a washing solution which was prepared by dissolving 134 mM of sodium chloride, 15 mM of trisaminomethane, 1 mM of EDTA and 5 mM of D-glucose in twice-distilled water with a pH adjusted with 1N hydrogen chloride to 7.4. The suspension was centrifuged at room temperature at 2000 rpm for 10 minutes. The supernatant was discarded, and the precipitated platelets were re-suspended in a phosphate buffer at pH 8.0 to adjust number of the platelets to 1×10^6 per μl.
The washed platelets thus obtained were employed as a cycloxygenase source.
To 3 μg of arachidonic acid and 0.2 μCi (1 μg) of ^14 C-labelled arachidonic acid placed in a glass-stoppered test tube was added one drop of a propylene glycol/ethanol solution (1:3 by volume). The ethanol was evaporated under nitrogen. To the residue were added 50 μl of a solution to be tested and then 450 μl of the washed platelets. The mixture was reacted at 37° C. for 3 minutes.
To the reaction mixture was added with ice cooling one drop of 1N hydrogen chloride to adjust the pH to 2-3. To the resulting mixture was added 2 ml of ethyl acetate, followed by extraction by shaking for 10 minutes and centrifugal separation at 4° C. at 2500 rpm for 10 minutes.
The supernatant was transferred to a flask and concentrated. The residue was dissolved in 100 μl of ethanol, and the entire solution was spotted on a silica gel thin plate (Merck, 60 F254).
The plate was developed by approximately 18 cm with a developer solution (chloroform/methanol/acetic acid/waters=70:8:1:0.8), followed by measurement by a radiochromatoscanner of the sum of radioactivities of prostaglandin F2α, thromboxan B2, […], prostaglandin D2 and HHT to determine the inhibiting activity.

[1] abbreviates: aggregation induced by arachidonic acid (50 μmol.), rabbit PRP, 37° C., 3 min incubation, read-out: 50% aggregation inhibitory concentration, Arachidonic acid.
Setting [2] is: aggregation induced by collagen (10 μg/ml), rabbit PRP, 37° C., 3 min incubation, read-out: 50% aggregation inhibitory concentration, Collagen.

Regarding `Cc1cnc(-c2ccc(Cl)cc2)c(-c2ccc(Cl)cc2)n1` [Example 1, 2,3-bis(p-chlorophenyl)-5-methylpyrazine], the IC50 with platelet aggregation (setting [1]) was found to be 8.5 µM; in the test on platelet aggregation (setting [2]), 20 µM.
`COc1ccc(-c2ncc(C)nc2-c2ccc(OC)cc2)cc1` [Example 2, 2,3-bis(p-methoxyphenyl)-5-methylpyrazine]: the values for the IC50 at cycloxygenase, with platelet aggregation (setting [1]) and in the test on platelet aggregation (setting [2]) were 30 µM, 0.03 µM and 0.042 µM, respectively.
Regarding `COc1ccc(-c2ncc(Cc3cccs3)nc2-c2ccc(OC)cc2)cc1` [Example 9, 2,3-Bis(p-methoxyphenyl)-5-(2-thienylmethyl)pyrazine], the figures for the IC50 on cycloxygenase, in the test on platelet aggregation (setting [1]) and with platelet aggregation (setting [2]) were 86 µM, 0.44 µM and 0.79 µM, respectively.
Take `COc1cccc(Cc2cnc(-c3ccccc3)c(-c3ccccc3)n2)c1` [Example 5, 2,3-Diphenyl-5-(m-methoxybenzyl)pyrazine]: the values for the IC50 in the test with platelet aggregation (setting [1]) and with platelet aggregation (setting [2]) were 4.5 µM and 14 µM, respectively.
Take `COc1ccc(Cc2cnc(-c3ccccc3)c(-c3ccccc3)n2)cc1` [Example 4, 2,3-Diphenyl-5-(p-methoxybenzyl)pyrazine]: the IC50 at cycloxygenase was determined as 220 µM; in the test on platelet aggregation (setting [1]) it was 1.7 µM; in the test with platelet aggregation (setting [2]), 35 µM.
With `COc1ccc(-c2ncc(Cc3ccccc3)nc2-c2ccc(OC)cc2)cc1` [Example 6, 2,3-Bis(p-methoxyphenyl)-5-benzylpyrazine], the IC50 came to 0.2 µM in the test on platelet aggregation (setting [1]) and 5 µM with platelet aggregation (setting [2]).
For `CCc1cnc(-c2ccc(OC)cc2)c(-c2ccc(OC)cc2)n1` [Example 8, 2,3-bis(p-methoxyphenyl)-5-ethylpyrazine] the same measures were 0.046 µM and 0.64 µM.
In the case of `COc1ccc(-c2ncc(C(C)C)nc2-c2ccc(OC)cc2)cc1` [Example 7, 2,3-Bis(p-methoxyphenyl)-5-isopropylpyrazine], the IC50 with platelet aggregation (setting [1]) came to 0.025 µM; in the test on platelet aggregation (setting [2]), 0.79 µM.
Consider `CC(=O)Oc1ccccc1C(=O)O` [Aspirin, acetylsalicylic acid, reference compound], for which the IC50 with platelet aggregation (read-out: 50% aggregation inhibitory concentration, Arachidonic acid) came out at 14 µM; with platelet aggregation (read-out: 50% aggregation inhibitory concentration, Collagen), 560 µM.
Consider `c1ccc(Cc2cnc(-c3ccccc3)c(-c3ccccc3)n2)cc1` [Example 3, 2,3-diphenyl-5-benzylpyrazine], for which the IC50 with platelet aggregation (setting [1]) was determined as 8 µM; in the test on platelet aggregation (setting [2]) it was 46 µM.
Take `COc1ccc(-c2nc(C)c(C)nc2-c2ccc(OC)cc2)cc1` [Example 10, 2,3-bis(p-methoxyphenyl)-5,6-dimethylpyrazine]: the IC50 at cycloxygenase stood at 62 µM; in the test on platelet aggregation (setting [1]) it was 0.084 µM; in the test with platelet aggregation (setting [2]), 0.92 µM.

These data come from patent US4788197A, “Pyrazine derivatives useful as platelet aggregation inhibitors” (Terumo Kabushiki Kaisha, priority 1985, dated 1988).
